Each compound was assayed against T1, Mcl-1/Bim interaction, recombinant human Mcl-1 (171-327) (Homo sapiens, UniProt Q07820) (assay: Cell free Mcl-1: Bim Affinity Assay (Mcl-1 HTRF)). Settings: TR-FRET, 0.1 nM Mcl-1 (171-327), 0.05 nM biotin-Bim (51-76).
T1 construct: made in house
Format: binding
How it was run: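 Read-out is time-resolved FRET after overnight incubation, using a biotin-labelled peptide from human Bim (51-76) as the binding partner; IC50 was derived from competition curves.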

T1 sequence (Q07820 171-327): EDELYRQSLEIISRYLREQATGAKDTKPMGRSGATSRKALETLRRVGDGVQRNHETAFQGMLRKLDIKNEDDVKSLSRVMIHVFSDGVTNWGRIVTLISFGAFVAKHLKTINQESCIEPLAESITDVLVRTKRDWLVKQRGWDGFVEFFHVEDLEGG

| SMILES | IC50 [nM] |
| --- | --- |
| CC[C@@H]1CC/C=C\[C@H](OCC(=O)NC)[C@@H]2CC[C@H]2CN2C[C@@]3(CCCc4cc(Cl)ccc43)COc3ccc(cc32)C(=O)NS1(=O)=O [Example 964, 2-(((1S,3′R,6′R,7′S,8′Z,12′R)-6-chloro-12′-ethyl-13′,13′-dioxido-15′-oxo-3,4-dihydro-2H-spiro[naphthalene-1,22′-[20]oxa[13]thia[1,14]diazatetracyclo[14.7.2.0^3,6.0^19,24]pentacosa [8,16,18,24]tetraen]-7′-yl)oxy)-N-methylacetamide] | 1.01 |
| CC[C@@H]1CC/C=C/[C@H](OCCC2OCCO2)[C@@H]2CC[C@H]2CN2C[C@@]3(CCCc4cc(Cl)ccc43)COc3ccc(cc32)C(=O)NS1(=O)=O [Example 968, (1S,3′R,6′R,7′S,8′E,12′R)-6-chloro-7′-(2-(1,3-dioxolan-2-yl)ethoxy)-12′-ethyl-3,4-dihydro-2H,15′H-spiro[naphthalene-1,22′-[20]oxa[13]thia[1,14]diazatetracyclo[14.7.2.0^3,6.0^19,24]pentacosa [8,16,18,24]tetraen]-15′-one 13′,13′-dioxide] | 1.9 |
| CC[C@@H]1CC/C=C/[C@H](OCCO)[C@@H]2CC[C@H]2CN2C[C@@]3(CCCc4cc(Cl)ccc43)COc3ccc(cc32)C(=O)NS1(=O)=O [Example 970, (1S,3′R,6′R,7′S,8′E,12′R)-6-chloro-12′-ethyl-7′-(2-hydroxyethoxy)-3,4-dihydro-2H,15′H-spiro[naphthalene-1,22′-[20]oxa[13]thia[1,14]diazatetracyclo[14.7.2.0^3,6.0^19,24]pentacosa [8,16,18,24]tetraen]-15′-one 13′,13′-dioxide] | 0.859 |
| CC[C@@H]1CC/C=C/[C@H](OCC(=O)OC(C)(C)C)[C@@H]2CC[C@H]2CN2C[C@@]3(CCCc4cc(Cl)ccc43)COc3ccc(cc32)C(=O)NS1(=O)=O [Example 971, tert-butyl (((1S,3′R,6′R,7′S,8′E,12′R)-6-chloro-12′-ethyl-13′,13′-dioxido-15′-oxo-3,4-dihydro-2H-spiro[naphthalene-1,22′-[20]oxa[13]thia[1,14]diazatetracyclo[14.7.2.0^3,6.0^19,24]pentacosa [8,16,18,24]tetraen]-7′-yl)oxy)acetate] | 8.44 |
| CC[C@@H]1CC/C=C/[C@H](OCC(C)(C)O)[C@@H]2CC[C@H]2CN2C[C@@]3(CCCc4cc(Cl)ccc43)COc3ccc(cc32)C(=O)NS1(=O)=O [Example 972, (1S,3′R,6′R,7′S,8′E,12′R)-6-chloro-12′-ethyl-7′-(2-hydroxy-2-methylpropoxy)-3,4-dihydro-2H,15′H-spiro[naphthalene-1,22′-[20]oxa[13]thia[1,14]diazatetracyclo[14.7.2.0^3,6.0^19,24]pentacosa [8,16,18,24]tetraen]-15′-one 13′,13′-dioxide] | 1.59 |
| CC[C@@H]1CC/C=C/[C@H](OCC(=O)N(C)C)[C@@H]2CC[C@H]2CN2C[C@@]3(CCCc4cc(Cl)ccc43)COc3ccc(cc32)C(=O)NS1(=O)=O [Example 973] | 0.378 |
| CC[C@@H]1CC/C=C/[C@H](OCC(=O)NC)[C@@H]2CC[C@H]2CN2C[C@@]3(CCCc4cc(Cl)ccc43)COc3ccc(cc32)C(=O)NS1(=O)=O [Example 974, 2-(((1S,3′R,6′R,7′S,8′E,12′R)-6-chloro-12′-ethyl-13′,13′-dioxido-15′-oxo-3,4-dihydro-2H-spiro[naphthalene-1,22′-[20]oxa[13]thia[1,14]diazatetracyclo[14.7.2.0^3,6.0^19,24]pentacosa [8,16,18,24]tetraen]-7′-yl)oxy)-N-methylacetamide] | 0.716 |
| CCO[C@H]1/C=C/CC[C@@H](CC)S(=O)(=O)NC(=O)c2ccc3c(c2)N(C[C@@H]2CC[C@H]21)C[C@@]1(CCCc2cc(Cl)ccc21)CO3 [Example 975, (1S,3′R,6′R,7′S,8′E,12′R)-6-chloro-7′-ethoxy-12′-ethyl-3,4-dihydro-2H,15′H-spiro[naphthalene-1,22′-[20]oxa[13]thia[1,14]diazatetracyclo[14.7.2.0^3,6.0^19,24]pentacosa [8,16,18,24]tetraen]-15′-one 13′,13′-dioxide] | 2.15 |
| CC[C@@H]1CC/C=C/[C@H](OCc2ccccn2)[C@@H]2CC[C@H]2CN2C[C@@]3(CCCc4cc(Cl)ccc43)COc3ccc(cc32)C(=O)NS1(=O)=O [Example 976, (1S,3′R,6′R,7′S,8′E,12′R)-6-chloro-12′-ethyl-7′-(2-pyridinylmethoxy)-3,4-dihydro-2H,15′H-spiro[naphthalene-1,22′-[20]oxa[13]thia[1,14]diazatetracyclo[14.7.2.0^3,6.0^19,24]pentacosa [8,16,18,24]tetraen]-15′-one 13′,13′-dioxide] | 10.4 |
| CC[C@@H]1CC/C=C/[C@H](OCCOC)[C@@H]2CC[C@H]2CN2C[C@@]3(CCCc4cc(Cl)ccc43)COc3ccc(cc32)C(=O)NS1(=O)=O [Example 980, (1S,3′R,6′R,7′S,8′E,12′R)-6-chloro-12′-ethyl-7′-(2-methoxyethoxy)-3,4-dihydro-2H,15′H-spiro[naphthalene-1,22′-[20]oxa[13]thia[1,14]diazatetracyclo[14.7.2.0^3,6.0^19,24]pentacosa [8,16,18,24]tetraen]-15′-one 13′,13′-dioxide] | 0.755 |
| CC[C@@H]1CC/C=C/[C@H](OCCS(C)(=O)=O)[C@@H]2CC[C@H]2CN2C[C@@]3(CCCc4cc(Cl)ccc43)COc3ccc(cc32)C(=O)NS1(=O)=O [Example 981, (1S,3′R,6′R,7′S,8′E,12′R)-6-chloro-12′-ethyl-7′-(2-(methylsulfonyl)ethoxy)-3,4-dihydro-2H,15′H-spiro[naphthalene-1,22′-[20]oxa[13]thia[1,14]diazatetracyclo[14.7.2.0^3,6.0^19,24]pentacosa [8,16,18,24]tetraen]-15′-one 13′,13′-dioxide] | 0.943 |
| CC[C@@H]1CC/C=C/[C@H](OCC#N)[C@@H]2CC[C@H]2CN2C[C@@]3(CCCc4cc(Cl)ccc43)COc3ccc(cc32)C(=O)NS1(=O)=O [Example 982, (((1S,3′R,6′R,7′S,8′E,12′R)-6-chloro-12′-ethyl-13′,13′-dioxido-15′-oxo-3,4-dihydro-2H-spiro[naphthalene-1,22′-[20]oxa[13]thia[1,14]diazatetracyclo[14.7.2.0^3,6.0^19,24]pentacosa [8,16,18,24]tetraen]-7′-yl)oxy)acetonitrile] | 3.14 |

Same assay, conditions: cell free Mcl-1:Bim TR-FRET, recombinant human Mcl-1 (171-327)

| SMILES | IC50 [nM] |
| --- | --- |
| O=C1NS(=O)(=O)CCCCCC[C@H](O)[C@@H]2CC[C@H]2CN2C[C@@]3(CCCc4cc(Cl)ccc43)COc3ccc1cc32 [Example 835, (1S,3′R,6′R,7′S)-6-chloro-7′-hydroxy-3,4-dihydro-2H,16′H-spiro[naphthalene-1,23′[21]oxa[14]thia[1,15]diazatetracyclo[15.7.2.0^3,6.0^20,25]hexacosa[17,19,25]trien]-16′-one 14′,14′-dioxide] | 3.44 |
| O=C1NS(=O)(=O)CCCCC[C@@H](O)[C@@H]2CC[C@H]2CN2C[C@@]3(CCCc4cc(Cl)ccc43)COc3ccc1cc32 [Example 843, (1S,3′R,6′R,7′R)-6-chloro-7′-hydroxy-3,4-dihydro-2H,15′H-spiro[naphthalene-1,22′-[20]oxa[13]thia[1,14]diazatetracyclo[14.7.2.0^3,6.0^19,24]pentacosa [16,18,24]trien]-15′-one 13′,13′-dioxide] | 6.8 |
| O=C1NS(=O)(=O)CCCC/C=C/[C@@H]2CC[C@H]2CN2C[C@@]3(CCCc4cc(Cl)ccc43)COc3ccc1cc32 [Example 858, (1S,3′R,6′S, 7′E)-6-chloro-3,4-dihydro-2H,15′H-spiro[naphthalene-1,22′-[20]oxa[13]thia[1,14]diazatetracyclo[14.7.2.0^3,6.0^19,24]pentacosa [7,16,18,24]tetraen]-15′-one 13′,13′-dioxide] | 27.8 |
| C=C1/C=C/CC[C@@H](CC)S(=O)(=O)NC(=O)c2ccc3c(c2)N(C[C@@H]2CC[C@@H]12)C[C@@]1(CCCc2cc(Cl)ccc21)CO3 [Example 872, (1S,3′R,6′R,8′E,12′R)-6-chloro-12′-ethyl-7′-methylidene-3,4-dihydro-2H,15′H-spiro[naphthalene-1,22′-[20]oxa[13]thia[1,14]diazatetracyclo[14.7.2.0^3,6.0^19,24]pentacosa [8,16,18,24]tetraen]-15′-one 13′,13′-dioxide] | 6.36 |
| C=C1CCCCCS(=O)(=O)NC(=O)c2ccc3c(c2)N(C[C@@H]2CC[C@@H]12)C[C@@]1(CCCc2cc(Cl)ccc21)CO3 [Example 904, (1S,3′R,6′R)-6-chloro-7′-methylidene-3,4-dihydro-2H,15′H-spiro[naphthalene-1,22′-[20]oxa[13]thia[1,14]diazatetracyclo[14.7.2.0^3,6.0^19,24]pentacosa [16,18,24]trien]-15′-one 13′,13′-dioxide] | 16.2 |
| O=C1NS(=O)(=O)CC/C=C/CC(=O)[C@@H]2CC[C@H]2CN2C[C@@]3(CCCc4cc(Cl)ccc43)COc3ccc1cc32 [Example 905, (1S,3′R,6′R,9′E)-6-chloro-3,4-dihydro-2H,7′H,15′H-spiro[naphthalene-1,22′-[20]oxa[13]thia[1,14]diazatetracyclo[14.7.2.0^3,6.0^19,24]pentacosa [9,16,18,24]tetraene]-7′,15′-dione 13′,13′-dioxide] | 14.1 |
| CC[C@@H]1CC/C=C/C(=O)[C@@H]2CC[C@H]2CN2C[C@@]3(CCCc4cc(Cl)ccc43)COc3ccc(cc32)C(=O)NS1(=O)=O [Example 915, (1S,3′R,6′R,8′E,12′R)-6-chloro-12′-ethyl-3,4-dihydro-2H,7′H,15′H-spiro[naphthalene-1,22′-[20]oxa[13]thia[1,14]diazatetracyclo[14.7.2.0^3,6.0^19,24]pentacosa [8,16,18,24]tetraene]-7′,15′-dione 13′,13′-dioxide] | 16.2 |
| O=C1CC[C@@H]2CC[C@H]2CN2C[C@@]3(CCCc4cc(Cl)ccc43)COc3ccc(cc32)C(=O)NS(=O)(=O)CCN1 [Example 945, (1S,3′R,6′S)-6-chloro-3,4-dihydro-2H,9′H,15′H-spiro[naphthalene-1,22′-[20]oxa[13]thia[1,10,14]triazatetracyclo[14.7.2.0^3,6.0^19,24]pentacosa[16,18,24]triene]-9′,15′-dione 13′,13′-dioxide] | 12 |
